Patent publication US9855320B2, “Angiogenin for treatment of glaucoma” (CHUNG-ANG UNIVERSITY INDUSTRY-ACADEMIC COOPERATION …, priority 2011, dated 2018)

Assays:
[1] = system: Schlemm's canal peripheral tissue in anterior chamber angle; experiment: H&E staining of Schlemm's canal peripheral tissue in anterior chamber angle of glaucoma model after instillation; assay type: in vivo, rat; details: after instillation compared to before instillation
angiogenin = experiment: Angiogenin immunohistochemical staining of glaucoma rat model anterior chamber angle after instillation; assay type: in vivo; details: episcleral venous ablation glaucoma model, 1 hour after instillation, compared to before angiogenin instillation
Method: Eyeballs donated for research purposes were pre-fixed in a 4% paraformaldehyde solution for 6 hours, and then, a tissue thereof was cut to be perpendicular to cornea, including cornea, limbus, and conjunctival, and the obtained tissue was fixed at room temperature for 6 hours. The fixed tissue was rapidly frozen and then a frozen tissue section was prepared and attached to slide glass. Thereafter, for immunohistochemical staining, the tissue section was washed with distilled water for 10 minutes and then, treated with 1% hydrogen peroxide solution for 20 minutes and then, washed three times with 0.02M phosphate buffer solution and treated with normal horse serum for 30 minutes. Then, primary antibody of angiogenin and Indoleamine 2,3-dioxygenase (IDO) were applied thereto for 48 hours, and then the result tissue were washed with PBS, and then, secondary antibody was applied thereto at room temperature for 1 hour. When immunohistochemical staining was completed, the tissue was sealed by poly-mount and identified by optical microscopy. […]

retinal ganglion cell = experiment: Retinal ganglion cell density on H-E staining, chronic intraocular pressure increase model; assay type: in vivo, rat; details: 8 weeks after the injury
Method: 0.05 cc/50 g of Tiletimine and Zolazepam-mixed medicament (Zoletil) and Xylazine (Rompum) were mixed at a ratio of 1:1 and then administered to 20 rats by intramuscular injection, thereby anesthetizing the rats. A limbus periphery was divided into four portions, each of which was then subjected to 2 mm dissection at an interval of 90 degrees, and then, two radial conjunctival excisions were performed on upper dissection periphery. […] After surgical isolation of vein, the vein was lifted up by using 3 mm-width spatula to be spaced apart from the peripheral tissue, and then, was subjected to electric ablation while being careful for the peripheral tissue not to have any thermal damage or any mechanical damage due to contact. Intraocular pressure was consecutively measured three or more times by using Tonopen (Solan, Fla., USA), and only reliable intraocular pressure values within 5 percentile were recorded. […] Before the operation, and 3 days, and 1, 2, 4, and 8 weeks after the operation, intraocular pressure was measured, and the rats were sacrificed to extract eyes therefrom, which were then subjected to tissue examination and immunechemical staining with respect to Brn-3a and CD11b, and a reverse transcription polymerase chain reaction was used to measure CD11b value in retinal tissue. […]

[2] = system: corneal chemical burn model; experiment: Corneal chemical burn model: corneal opacity and corneal neoangiogenesis on anterior ocular segment images; assay type: in vivo, rat
Method: Regarding 20 eyes of 20 rats, filter paper was cut to a round shape having a diameter of 4 mm and completely wet with NaOH, and then, placed on corneal and conjunctiva with upper corneal limbus therebetween for 6 seconds, and then, the eyes were washed. 10 eyes of the 10 rats were treated with angiogenin 10 μl four times a day at time intervals of 6 hours two days before test, and even after the NaOH injury, treated 4 times a day. The remaining 10 eyes were treated with physiological saline two days before the injury in the same manner as used with angiogenin. Angiogenin and physiological saline were all administered only up to 7 days after injuring.
(§1) Three days, and 1, 2, 4, and 8 weeks after injuring, corneal opacity and neoangiogenesis level were assessed in consideration of images of anterior ocular segment, and on the third day and the seventh day, the respective conjunctiva damaged parts were collected and then subjected to a reverse transcription polymerase chain reaction to assay expression of IL-1a, TGF-β, SDF-1, and caspase-3.
On the corneal neoangiogenesis image, the region where blood vessel was grown was divided in the wedge shape at intervals of 1 hour while the corneal peak was used as a reference, and an area thereof was calculated, and the area was calculated according to this equation: A=C/12×3.1416 [r^2−(r−l)^2]. (A: new vessel area, C: time occupied when divided by 12 hours, r: corneal […], and l: vascular grown length)

IL-1a = experiment: Reverse transcription polymerase chain reaction on injured tissue of corneal chemical burn model, IL-1a; assay type: in vivo, rat; details: third day and seventh day after keratoconjunctival chemical injury
Method: as §1
(§2) Tissues obtained from chronic intraocular pressure increase model and corneal chemical burn model were frozen, and then cut into small parts by using a fine knife. The tissue parts were treated with 1 ml of TRI reagent (Molecular Research Center, Inc.) and then, tissue and cell were lysed by homogenizer. The respective implication cDNA […] 0.2 mM dNTP, 10×buffer, 10 pmols primer, and 0.2 U Taq polymerase were mixed to obtain a volume of 20 μl, and then, PCR thermal cycler (a machine for PCR) was used for reaction for 5 minutes at 95° C., 40 second at 94° C., 40 seconds at 48 to 64° C., 40 seconds (35 cycles) at 72° C., and 10 minutes at 72° C. The amplified polymerase chain reaction product was identified by 1% agarose gel electrophoresis. β actin was used as a positive control for the polymerase chain reaction, and relative expression morphs of a target gene with respect to β actin expression were compared. […]

SDF-1 = experiment: Reverse transcription polymerase chain reaction on injured tissue of corneal chemical burn model, SDF-1; assay type: in vivo, rat; details: third day and seventh day after keratoconjunctival chemical injury
Method: as §1, §2

caspase-3 = experiment: Reverse transcription polymerase chain reaction on injured tissue of corneal chemical burn model, caspase-3; assay type: in vivo, rat; details: third day and seventh day after keratoconjunctival chemical injury
Method: as §1, §2

[3] = from 2 weeks after the injury to 8 weeks

angiogenin: recombinant human angiogenin (R&D systems); 14.4 kDa single chain protein of 123 amino acids, a ribonuclease inducing angiogenesis
diameter and intercellular interval of Schlemm's canal [1]: increased
angiogenin stain in anterior chamber angle / at trabecular meshwork (angiogenin): intensified
density of retinal ganglion cell (retinal ganglion cell): does not change
corneal opacity compared to the control [2, 3]: significantly low
corneal opacity grade (most of the group) [2, 3]: grade 1 or grade 2
corneal new vessel area ([2]; on the second week after injury): did not change
corneal opacity compared to the control ([2]; up to the seventh day after injury): no significant difference
IL-1a expression compared to the control (IL-1a): less expressed
SDF-1 expression compared to the control (SDF-1): less expressed
caspase-3 expression compared to the control (caspase-3): less expressed
